Measurements as given in PubChem BioAssay (NCI).
Values joined by “and” are separate entries in the source; they are usually repeats but may differ in a detail not shown here. Equal values may be shown once.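 In this assay, cells in 96-well plates receive the compound at five concentrations for 48 hours. Endpoints are linearly interpolated between the surrounding concentrations. GI50: concentration for 50% inhibition of growth. TGI denotes the concentration required for complete inhibition of growth.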

Tests used:
Assay in all cases: NCI-60 cell line screen, 48 h
[1] = system: HCC-2998 colon
[2] = system: NCI-H23 lung
[3] = system: CCRF-CEM leukemia
[4] = system: COLO 205 colon
[5] = system: OVCAR-4 ovarian
[6] = system: NCI/ADR-RES ovarian
[7] = system: SK-OV-3 ovarian
[8] = system: EKVX NSCLC
[9] = system: SK-MEL-28 melanoma
[10] = system: OVCAR-5 ovarian

| Compound | GI50 [1] | TGI [1] | GI50 [2] | TGI [2] | GI50 [3] | TGI [3] | GI50 [4] | TGI [4] | GI50 [5] | TGI [5] | GI50 [6] | TGI [6] | GI50 [7] | TGI [7] | GI50 [8] | TGI [8] | GI50 [9] | TGI [9] | GI50 [10] | TGI [10] |
| --- | --- | --- | --- | --- | --- | --- | --- | --- | --- | --- | --- | --- | --- | --- | --- | --- | --- | --- | --- | --- |
| CC1C(C)N(C(=O)CCl)c2ccccc2N1C(=O)CCl (stereo not given) | 1690 nM | 3.23 µM | 705 nM | 2.68 µM | 150 nM | 0.629 µM | 399 nM | 0.973 µM | 499 nM | 1.73 µM | 784 nM | 13.3 µM | 1580 nM | 3 µM | 941 nM | 2.42 µM | 838 nM | 2.9 µM | 896 nM | 2.57 µM |
| CCc1ccc(CCC(=O)Nc2ncc(Cc3ccc(Cl)cc3)s2)o1 | 812 nM | > 100 µM | 1530 nM | > 100 µM | 352 nM | > 100 µM |  |  | > 100000 nM | > 100 µM | 335 nM | > 75.3 µM | 449 nM | > 100 µM | 527 nM | > 100 µM | 4270 nM | > 100 µM | 615 nM | > 100 µM |
| CCOC(=O)Oc1cc2c(c(OC)c1OC)-c1ccc(OC)c(=O)cc1C(NC(C)=O)CC2 (stereo not given) |  | 0.683 µM |  | 8.82 µM |  | > 21.5 µM |  | 0.135 µM |  | > 100 µM |  | > 57.9 µM |  | 98.1 µM |  | > 100 µM |  | > 100 µM |  | > 100 µM |
| CC1=C2[C@@H](CC1)[C@]1(C)O[C@@](C(C)C)(C[C@H]1OC(=O)CO)[C@H]2OC(=O)C1CC1c1ccccc1 (stereo not given in full) | 13500 nM | 29.4 µM | 14200 nM | 32.4 µM | 16200 nM | 39.1 µM | 16100 nM | 33 µM | 13000 nM | 26.9 µM | 8950 nM | 30.8 µM | 16400 nM | 30.7 µM | 8210 nM | 22.7 µM | 16800 nM | 34.6 µM | 20300 nM | 40.4 µM |
| Cc1ccccc1NC(=O)c1sc2nc(C)c(C(=O)/C=C/c3ccccc3)cc2c1N | 913 nM | 1.67 µM | 1210 nM | 3.16 µM | 1500 nM | > 50 µM | 1650 nM | 5.27 µM | 1420 nM | > 50 µM | 1500 nM | > 50 µM | 2500 nM | 25.9 µM | 3860 nM | 11.1 µM | 1260 nM | 3.72 µM | 1010 nM | 2.62 µM |
| COc1ccc2c(c1)[nH]c(=O)c1c3cccc(F)c3cn21 | 143 nM | 0.822 µM | 210 nM | > 52.3 µM | 28.2 nM | 0.304 µM | 38.8 nM | 1.11 µM | 126 nM | 28.8 µM | 38 nM | 14.3 µM | 84.8 nM | > 83.5 µM | 1270 nM | > 100 µM | 351 nM | > 69.8 µM | 508 nM | > 100 µM |
| COc1cc(Nc2ncc(-c3ccccc3)o2)cc(OC)c1 | > 25000 nM | > 25 µM | > 25000 nM | > 25 µM | > 25000 nM | > 25 µM | > 25000 nM | > 25 µM | > 25000 nM | > 25 µM | > 25000 nM | > 25 µM | > 25000 nM | > 25 µM | > 25000 nM | > 25 µM | > 25000 nM | > 25 µM | > 25000 nM | > 25 µM |
| COc1ccc(C/C(=C(\C)c2ccc(OCCN3CCCC3)cc2)c2ccc(OCCN3CCCC3)cc2)cc1 | 1740 nM | 3.19 µM | 3670 nM | 14.1 µM | 1800 nM | 4.51 µM | 1720 nM | 3.38 µM | 2080 nM | 5.1 µM | 1960 nM | 3.71 µM | 1860 nM | 3.68 µM | 2210 nM | 5.89 µM | 1820 nM | 3.3 µM | 1800 nM | 3.72 µM |
| CNC(=O)c1cc(Oc2ccc(NC(=O)Nc3ccc(Cl)c(C(F)(F)F)c3)c(F)c2)ccn1 | 2440 nM and 1900 nM | 10.4 µM and 8.17 µM | 1420 nM and 1440 nM | 6.29 µM and 7.14 µM | 2240 nM and 2510 nM | 7.01 µM and 8.88 µM | 2280 nM and 1360 nM | 8.52 µM and 5.74 µM | 2560 nM and 2740 nM | 19.7 µM and > 10 µM | 2670 nM and 2440 nM | 9.81 µM and > 10 µM | 3200 nM and 2430 nM | 12.3 µM and 8.49 µM | 2960 nM and 2680 nM | > 44 µM | 1570 nM and 1300 nM | 6.28 µM and 8.13 µM | 2680 nM and 2300 nM | > 44.4 µM |
| COc1ncc(Nc2ncc([C@@H](C)N3CCN(S(C)(=O)=O)CC3)cc2-c2nc(C)nc(N)n2)cc1F | 211 nM | > 100 µM | 3860 nM | > 100 µM | 145 nM | > 54.1 µM | 122 nM | 15.3 µM | 3290 nM | > 100 µM | 1610 nM | > 100 µM | 17.1 nM | 0.394 µM | 486 nM | 12.6 µM | 53.4 nM | > 36.6 µM | < 26.6 nM |  |
| O=C(/C=C\c1ccc([N+](=O)[O-])cc1)c1ccccc(=O)c1O |  | 5.6 µM |  | 12.4 µM |  | 0.532 µM |  | 0.967 µM |  | 18.1 µM |  | 2.97 µM |  | 17.2 µM |  | 11.9 µM |  | 3.75 µM |  | 9.92 µM |
| CC1(C)CNc2cc(NC(=O)c3cccnc3NCc3ccncc3)ccc21 | 39000 nM | > 100 µM | 27600 nM | > 100 µM | 23700 nM | > 100 µM | 34200 nM | > 100 µM | 18000 nM | > 100 µM | 25100 nM | > 100 µM | 26500 nM | > 100 µM | 23600 nM | > 95.2 µM | 22100 nM | > 100 µM | 50900 nM | > 100 µM |
| CC(C)(C)C1CCC2c3c([nH]c4ccccc34)C3C(=O)N(c4ccc(Cl)cc4)C(=O)C3C2C1 (stereo not given) | 22100 nM and > 10000 nM | 81.6 µM and > 10 µM | 58400 nM and > 10000 nM | > 100 µM |  | 47.3 µM and > 10 µM | 49900 nM and > 10000 nM | > 100 µM | 59500 nM and > 10000 nM | > 100 µM | 51300 nM and > 10000 nM | > 100 µM | > 100000 nM | > 100 µM | 63900 nM and > 10000 nM | > 100 µM | > 100000 nM | > 100 µM |  | 0.256 µM |
| O=C(Nc1ccccc1)Nc1ccc2cc3ccc(NC(=O)Nc4ccccc4)cc3nc2c1 | 556 nM | 1.91 µM | 1480 nM | 3.3 µM | 276 nM | 0.828 µM | 573 nM | 1.88 µM | 1120 nM | 2.42 µM | 68700 nM | > 100 µM | 2130 nM | 4.5 µM | 4290 nM | > 100 µM | 1820 nM | 3.22 µM | 3100 nM | > 100 µM |
| COc1ccc2c(c1)c(-c1nc(-c3c[nH]c4ccncc34)cs1)cn2C | 1850 nM | 3.35 µM | 1820 nM | 3.39 µM | 1830 nM | 3.64 µM |  |  | 1890 nM | 3.71 µM | 1760 nM | 3.38 µM | 1880 nM | 3.37 µM | 1760 nM | 3.4 µM | 1630 nM | 3.04 µM | 1640 nM | 3.06 µM |
| COc1ccc(CN2c3ccccc3Sc3ccccc32)c(C(F)(F)F)c1 | 2000 nM | 10.3 µM | 1030 nM | 93.4 µM | 454 nM | 26.5 µM | 640 nM | 3.08 µM | 2170 nM | > 100 µM | 462 nM | 3.16 µM | 557 nM | > 100 µM | 1200 nM | > 100 µM |  |  | 9750 nM | > 100 µM |
| CCC(C)[C@H](NC(=O)Nc1cc(C(F)(F)F)cc(C(F)(F)F)c1)C(=O)N[C@@H](Cc1cn(C)cn1)C(=O)OC (stereo not given in full) | 696 nM | 1.35 µM | 6150 nM |  | 14.6 nM | 1.45 µM | 1400 nM | 1.89 µM | 599 nM | 1.12 µM | 3780 nM | 5.57 µM | 1380 nM | 1.82 µM |  |  | 572 nM | 1.1 µM | 1320 nM | 1.83 µM |
| Cc1cc2c(cc1Cl)S/C(=C/C(=O)O)C(Nc1ccc3ncsc3c1)=NS2(=O)=O |  |  | > 14300 nM | > 22.5 µM | 7220 nM | > 53.5 µM | > 26700 nM | > 33.9 µM | > 34300 nM | > 54.5 µM | > 18100 nM | > 34.7 µM | > 33400 nM | > 52 µM | > 16900 nM | > 52.8 µM | 32400 nM | > 60.6 µM | 23400 nM | > 42.4 µM |
| CCCCCCCCCCCCCCCCCCn1cc[n+](C)c1 | 303 nM and 192 nM | 1.26 µM and 0.913 µM |  |  | 127 nM and 458 nM |  | 350 nM | 1.28 µM | 645 nM and 518 nM |  | 1580 nM | 5.47 µM | 1230 nM and 1100 nM | 4.14 µM and 2.62 µM |  |  | 1010 nM and 1150 nM | 2.41 µM and 2.59 µM | 605 nM | 2 µM |
